Results reported in ChEMBL document CHEMBL1138935, “Lead optimization providing a series of flavone derivatives as potent nonsteroidal inhibitors of the cytochrome P450 aromatase enzyme” (J Med Chem, 2006).

Target: T1, CYP17 (steroid 17-alpha-hydroxylase/17,20 lyase) (Homo sapiens, UniProt P05093)
T1 sequence (P05093 whole entry): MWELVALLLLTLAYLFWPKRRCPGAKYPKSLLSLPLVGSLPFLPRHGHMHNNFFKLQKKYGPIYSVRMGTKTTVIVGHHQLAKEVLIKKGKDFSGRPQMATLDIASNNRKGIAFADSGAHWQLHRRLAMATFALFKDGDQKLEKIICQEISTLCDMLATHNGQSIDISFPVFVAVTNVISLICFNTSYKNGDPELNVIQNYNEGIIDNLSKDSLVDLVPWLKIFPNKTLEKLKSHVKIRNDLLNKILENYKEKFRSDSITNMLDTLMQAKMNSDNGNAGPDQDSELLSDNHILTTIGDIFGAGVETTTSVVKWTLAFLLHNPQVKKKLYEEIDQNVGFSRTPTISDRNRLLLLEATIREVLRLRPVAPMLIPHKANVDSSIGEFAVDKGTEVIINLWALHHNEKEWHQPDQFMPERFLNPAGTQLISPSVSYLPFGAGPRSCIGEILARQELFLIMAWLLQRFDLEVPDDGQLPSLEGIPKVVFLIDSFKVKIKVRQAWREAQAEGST
Test: Inhibition of CYP17 at 2.5 uM

Row | inhibition at 2.5 µM | SMILES
1 | 29% | COc1ccc2c(=O)c(Cn3ccnc3)c(-c3ccc(Br)cc3)oc2c1
2 | 9% | COc1ccc2c(=O)c(Cn3ccnc3)c(-c3ccc([N+](=O)[O-])cc3)oc2c1
3 | 26% | COc1ccc(-c2oc3ccccc3c(=O)c2Cn2ccnc2)cc1
4 | 12% | COc1ccc2c(=O)c(Cn3ccnc3)c(-c3ccc(C#N)cc3)oc2c1
5 | 27% | O=c1c(Cn2ccnc2)c(-c2ccc(Br)cc2)oc2ccccc12
